Source: PubChem BioAssay AID1053168 (Broad Institute, 2014)
The source made the active and inactive calls. The rule behind the calls is not given here.

What was measured:
[1] = Stage specific vaccinia inhibitors, dry powder dose response, infected cell reporter fluorescence (AID 1053168); details: Vaccinia-infected cells, mCherry/Venus stage reporter fluorescence
[2] = test system: Vaccinia-infected cells, mCherry/Venus stage reporter fluorescence; assay: as above
[3] = measured here: Venus reporter AC50
[4] = measured here: mCherry reporter AC50

SMILES | activity change, negative = inhibition ([1]; at 21 µM (top of the series)) | AC50 [2, 4] [µM] | further results
CCCNC(=O)C[C@H]1CC[C@@H]2[C@@H](COc3ccc(NC(=O)CCC)cc3C(=O)N2C)O1 | 2.55% (inactive) | – | –
CN1c2ccc(-c3ccc(C#N)cc3)cc2[C@H]2[C@H](CCN2C(=O)C2CCCCC2)[C@@H]1CO | – | 18.9 | AC50 [2]: 18.9 µM; AC50 [2, 3]: 20.5 µM
CN1c2ccc(C#Cc3cccnc3)cc2[C@@H]2[C@@H](CCN2C(=O)C2CCC2)[C@@H]1CO | 10.1% (inactive) | – | –
COc1ccccc1CN1CC[C@@H]2[C@H]1c1cc(-c3ccc(C(=O)N(C)C)cc3)ccc1N[C@@H]2CO | -27.4% (inactive) | > 42 | –
O=C(Nc1ccc2c(c1)[C@@H]1C[C@@H](CC(=O)N3CCCCC3)O[C@@H](CO)[C@@H]1O2)Nc1ccccc1F | 3.1% (inactive) | – | –
C[C@H](CO)N1C[C@H](C)[C@@H](CN(C)S(=O)(=O)c2ccc(Cl)cc2)Oc2c(NS(=O)(=O)c3cn(C)cn3)cccc2C1=O | -2.63% (inactive) | – | –
C[C@@H]1CN([C@@H](C)CO)C(=O)Cc2cc(NC(=O)C3CCCCC3)ccc2O[C@H]1CN(C)C(=O)Nc1ccccc1 | -0.285% (inactive) | – | –
CCCNC(=O)N(C)C[C@@H]1Oc2ncc(C#CC3CCCCC3)cc2C(=O)N([C@H](C)CO)C[C@@H]1C | -19.2% (inactive) | – | AC50 [2, 3]: > 42 µM
C[C@H](O)C#Cc1ccc2c(c1)O[C@@H](CN(C)Cc1ccccc1)[C@H](C)CN([C@@H](C)CO)S2(=O)=O | -8.31% (inactive) | > 42 | AC50 [2, 3]: > 42 µM
C[C@@H]1CN([C@H](C)CO)S(=O)(=O)c2ccc(C#C[C@@H](C)O)cc2O[C@@H]1CN(C)Cc1ccccc1 | -2.36% (inactive) | – | –
COc1ccccc1CN1CC[C@H]2[C@H](CO)Nc3ccc(-c4ccc(C(=O)N(C)C)cc4)cc3[C@H]21 | -16.1% (inactive) | > 42 | –
COc1ccccc1-c1ccc2c(c1)[C@H]1[C@H](CCN1C(=O)C1CCCCC1)[C@@H](CO)N2 | – | 18.6 | AC50 [2]: 18.6 µM
C[C@@H](O)C#Cc1ccc2c(c1)O[C@@H](CN(C)Cc1cccnc1)[C@@H](C)CN([C@@H](C)CO)S2(=O)=O | 6.15% (inactive) | – | –
CN1c2ccc(C#Cc3cccnc3)cc2[C@@H]2[C@@H](CCN2C(=O)C2CCC2)[C@H]1CO | -4.64% (inactive) | – | –
C[C@H]1CCCCO[C@H](CN(C)S(=O)(=O)c2ccc(Cl)cc2)[C@@H](C)CN([C@@H](C)CO)C(=O)c2cc(NC(=O)Nc3ccc(F)cc3)ccc2O1 | -17.8% (inactive) | > 42 | AC50 [2, 3]: > 42 µM
C[C@H](O)C#Cc1ccc2c(c1)O[C@@H](CN(C)Cc1ccccc1)[C@@H](C)CN([C@@H](C)CO)S2(=O)=O | -2.82% (inactive) | – | –
Cc1noc(C)c1S(=O)(=O)Nc1ccc2c(c1)C(=O)N([C@@H](C)CO)C[C@@H](C)[C@H](CN(C)S(=O)(=O)c1cccs1)O2 | -3.33% (inactive) | – | –
CN1c2ccc(C#Cc3cccnc3)cc2[C@H]2[C@H](CCN2C(=O)C2CCCCC2)[C@@H]1CO | 9.03% (inactive) | – | –
C[C@H](O)C#Cc1ccc2c(c1)O[C@H](CN(C)Cc1ccc(-c3ccccc3)cc1)[C@@H](C)CN([C@@H](C)CO)S2(=O)=O | – | 16.4 | AC50 [2]: 16.4 µM; AC50 [2, 3]: 15.9 µM
C[C@@H](O)C#Cc1ccc2c(c1)O[C@H](CN(C)Cc1ccccc1)[C@@H](C)CN([C@@H](C)CO)S2(=O)=O | -5.1% (inactive) | > 42 | –
C[C@H](CO)N1C[C@H](C)[C@H](CN(C)Cc2ccccc2)Oc2cc(C#C[C@@H](C)O)ccc2S1(=O)=O | 1.54% (inactive) | – | –

SMILES | activity change, negative = inhibition ([1]; at 21 µM (top of the series)) | AC50 [2, 4] [µM] | further results
CCCNC(=O)c1cc2c(c(-c3cccc(-c4cccc(F)c4)c3)n1)[C@H](CCO)N([S@@](=O)C(C)(C)C)C2 | -8.81% (inactive) | > 42 | –
C[C@H](O)C#Cc1ccc2c(c1)O[C@@H](CN(C)Cc1ccccc1)[C@@H](C)CN([C@H](C)CO)S2(=O)=O | 16.5% (inactive) | – | –
O=C(Nc1ccc2c(c1)[C@@H]1C[C@@H](CC(=O)N3CCc4ccccc4C3)O[C@@H](CO)[C@@H]1O2)Nc1ccccc1F | – | – | activity change, negative = inhibition ([1]; at 19.5 µM (top of the series)): -50.6% (inactive)
CO[C@H]1CN(C)C(=O)c2ccc(NC(=O)c3ccc(F)cc3)cc2OC[C@H](C)N(C(=O)c2ccc(F)cc2)C[C@@H]1C | – | 15.6 | AC50 [2]: 15.6 µM
C[C@H](O)C#Cc1ccc2c(c1)O[C@H](CN(C)Cc1ccccc1)[C@H](C)CN([C@@H](C)CO)S2(=O)=O | -6.79% (inactive) | – | –
C[C@H](O)C#Cc1ccc2c(c1)O[C@H](CN(C)Cc1ccc(-c3ccccc3)cc1)[C@H](C)CN([C@H](C)CO)S2(=O)=O | – | 17.1 | AC50 [2]: 17.1 µM; AC50 [2, 3]: 20.3 µM
COc1ccccc1CN1CC[C@@H]2[C@@H](CO)Nc3ccc(C#Cc4ccccc4)cc3[C@@H]21 | – | 20.9 | AC50 [2]: 20.9 µM
N#Cc1ccc(-c2ccc3c(c2)[C@H]2[C@H](CCN2C(=O)C2CCCCC2)[C@H](CO)N3)cc1 | – | 20.8 | AC50 [2]: 20.8 µM
COc1ccccc1CN1CC[C@@H]2[C@H]1c1cc(C#Cc3ccccc3)ccc1N[C@@H]2CO | – | 20.7 | AC50 [2]: 20.7 µM
CN1c2ccc(C#Cc3cccnc3)cc2[C@H]2[C@H](CCN2C(=O)C2CCC2)[C@@H]1CO | -15.9% (inactive) | – | –
C[C@@H](O)C#Cc1ccc2c(c1)O[C@H](CN(C)Cc1ccc(-c3ccccc3)cc1)[C@@H](C)CN([C@@H](C)CO)S2(=O)=O | – | 18.9 | AC50 [2]: 18.9 µM; AC50 [2, 3]: 20.8 µM
CN(C)C(=O)c1ccc(-c2cccc(-c3nc(C(=O)NC4CCCCC4)cc4c3[C@@H](CCO)N([S@](=O)C(C)(C)C)C4)c2)cc1 | -8.97% (inactive) | – | –
C[C@H](O)C#Cc1ccc2c(c1)O[C@H](CN(C)Cc1ccccc1)[C@H](C)CN([C@H](C)CO)S2(=O)=O | -3.27% (inactive) | – | –
CN(C)C(=O)c1ccc(-c2cccc(-c3nc(C(=O)NC4CCCC4)cc4c3[C@H](CCO)N([S@@](=O)C(C)(C)C)C4)c2)cc1 | -8.2% (inactive) | – | –
C[C@H]1CN([C@@H](C)CO)S(=O)(=O)c2ccc(C#CC(C)(C)O)cc2O[C@H]1CN(C)Cc1ccc(-c2ccccc2)cc1 | – | 14.9 | AC50 [2]: 14.9 µM; AC50 [2, 3]: 16.6 µM
C[C@@H](O)C#Cc1ccc2c(c1)O[C@@H](CN(C)Cc1ccccc1)[C@@H](C)CN([C@@H](C)CO)S2(=O)=O | -38% (inactive) | – | –
CN1c2ccc(C#Cc3cccnc3)cc2[C@H]2[C@H](CCN2C(=O)C2CCCCC2)[C@H]1CO | 19.5% (inactive) | – | –
C[C@@H](O)C#Cc1ccc2c(c1)O[C@@H](CN(C)Cc1ccncc1)[C@@H](C)CN([C@@H](C)CO)S2(=O)=O | 1.8% (inactive) | – | –
C[C@H](O)C#Cc1ccc2c(c1)O[C@@H](CN(C)Cc1ccc(-c3ccccc3)cc1)[C@H](C)CN([C@@H](C)CO)S2(=O)=O | – | 21.8 | AC50 [2]: 21.8 µM; AC50 [2, 3]: 20.5 µM
C[C@@H](O)C#Cc1ccc2c(c1)O[C@@H](CN(C)Cc1ccc(-c3ccccc3)cc1)[C@@H](C)CN([C@@H](C)CO)S2(=O)=O | – | 3.67 | AC50 [2]: 3.67 µM
C[C@@H]1CN([C@H](C)CO)S(=O)(=O)c2ccc(C#C[C@@H](C)O)cc2O[C@H]1CN(C)Cc1ccccc1 | -15.2% (inactive) | – | –
